Data published in PubChem BioAssay (NCI).
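48-hour exposure; five concentrations; linearly interpolated endpoints. At the TGI there is no net growth.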

Experiments:
Experiment in all cases: NCI tumour cell line growth inhibition, 48 h
DMS 273 small cell lung = test system: DMS 273 small cell lung
RXF-631 renal = test system: RXF-631 renal
DMS 114 small cell lung = test system: DMS 114 small cell lung
XF 498 CNS = test system: XF 498 CNS
LXFL 529 NSCLC = test system: LXFL 529 NSCLC
HOP-18 NSCLC = test system: HOP-18 NSCLC
SN12K1 renal = test system: SN12K1 renal
P388 leukemia = test system: P388 leukemia
P388/ADR leukemia = test system: P388/ADR leukemia

| Structure (SMILES) | TGI (DMS 273 small cell lung) [µM] | TGI (RXF-631 renal) [µM] | TGI (DMS 114 small cell lung) [µM] | TGI (XF 498 CNS) [µM] | TGI (LXFL 529 NSCLC) [µM] | TGI (HOP-18 NSCLC) [µM] | TGI (SN12K1 renal) [µM] | TGI (P388 leukemia) [µM] | TGI (P388/ADR leukemia) [µM] |
| --- | --- | --- | --- | --- | --- | --- | --- | --- | --- |
| O=C1c2ccc(O)cc2C(=O)c2ccc(O)cc21 | > 100 | > 100 | > 100 | > 100 | > 100 |  |  |  |  |
| COc1cc2c(c(OC)c1OC)-c1ccc(SC)c(=O)cc1[C@@H](NCc1ccc(C#N)cc1)CC2 |  |  | 0.00534 |  | > 100 |  |  |  |  |
| CC(C)(C)N=NNc1cn(C2OC(CO)C(O)C2O)c(=O)[nH]c1=O (stereo unspecified) | > 100 |  | > 100 |  | > 100 | > 100 |  |  |  |
| COc1cc2c(cc1OC)C(C(CO)CO)N(CC(O)CCl)CC2 (stereo unspecified) | > 100 | > 100 |  | > 100 | > 100 |  |  |  |  |
| Cc1c(Cl)c2ccccc2n1S(=O)(=O)c1ccccc1 | > 100 |  | > 100 | > 100 | > 100 |  |  |  |  |
| CCc1cc(Cc2cc(Cl)c(NC(=O)C(=O)C3NC(=O)NC3=O)c(CC)c2)cc(Cl)c1NC(=O)C(=O)C1NC(=O)NC1=O (stereo unspecified) | 41.3 |  | 83.9 |  | > 100 | > 100 |  |  |  |
| Cc1ccc(S(=O)(=O)N/N=C(\c2nc3ccc(Cl)cc3[nH]c2=O)C(O)c2cccc([N+](=O)[O-])c2)cc1 (stereo unspecified) | > 100 | > 100 | > 100 | > 100 | > 100 | > 100 |  |  |  |
| C[C@]12CCC(=O)C=C1CC[C@@H]1[C@@H]2[C@@H](O)C[C@@]2(C)[C@H]1CC[C@]2(O)C(=O)COC(=O)COCC(=O)O | > 100 |  | > 100 | > 100 |  | > 100 |  |  |  |
| O=C(c1ccc(Cl)cc1)c1ccc(OCCCOc2ccc(C(=O)c3ccc(Cl)cc3)cc2)cc1 | > 100 |  | > 100 | > 100 | > 100 |  |  |  |  |
| O=c1[nH]c(=O)n(C2OC(COP(=O)(O)OP(=O)(O)OC3OC(CO)C(O)C(O)C3O)C(O)C2O)cc1F (stereo unspecified) |  | > 100 | > 100 | 16.1 | > 100 | > 100 |  |  |  |
| O=C1Nc2ccccc2C12CCNC2Cc1ccccc1 (stereo unspecified) | > 100 |  | > 100 | > 100 | > 100 | > 100 |  |  |  |
| O=S(=O)(CCBr)CCBr | 15.1 |  | 6.72 |  |  | 32 | 19.7 | 5.67 | 12.1 |
| NC(CCCC(N)P(=O)(O)c1ccccc1)P(=O)(O)c1ccccc1 (stereo unspecified) | > 261 |  | > 261 | > 261 | > 261 | > 261 |  |  |  |
| COc1ccc(-c2cc(=O)c3cc4c(cc3[nH]2)OCO4)cc1OC | > 100 |  | > 100 | > 100 | > 100 | > 100 |  |  |  |
| CCOC(=O)C1(C/C=C(/C)Cl)CCCC1=O (stereo unspecified) | > 100 | > 100 | > 100 | > 100 | > 100 | > 100 |  |  |  |
| N#CC1=C(N)n2c(s/c(=C\c3ccc(Cl)cc3)c2=O)=C(c2nc3ccccc3[nH]2)C1c1ccc(Cl)cc1 (stereo unspecified) | 6.23 |  | 4.37 | 3.38 | 4.58 |  |  |  |  |
| CCCN(CCCC(NC(C)=O)C(=O)NCc1ccccc1)C(=O)N(CCCl)N=O (stereo unspecified) | 24.6 | > 77.6 | 65.7 | 30.3 | 34 | 64.7 |  |  |  |
| N[C@H](C(=O)O)[C@H]1ON=C(Cl)[C@@H]1O | > 550 |  | > 422 | > 301 |  | > 550 | > 324 | 17.5 | 46.4 |
| Cc1cccc2c(=O)c([Se]c3coc4c(C)cccc4c3=O)coc12 | > 100 |  | 31.7 | 34.8 | 29.2 | 41.2 |  |  |  |
| CN(C)c1ccc(C(=C(c2ccc(N(C)C)cc2)c2ccc(N(C)C)cc2)c2ccc(N(C)C)cc2)cc1 | 38.9 | 40.6 | 49.3 |  | 25.6 | 26.1 |  |  |  |
